Assays:
[1] = molecular target: T1, recombinant human Meningioma Expressed Antigen 5 (MGEA5), also referred to as O-GlcNAcase (OGA) (Homo sapiens, UniProt O60502); test: OGA biochemical assay (inhibition of FM-GlcNAc hydrolysis, fluorescence); details: FM-GlcNAc substrate; for IC50: 6 h at room temperature, read-out: Enzymatic hOGA, pIC50 (converted); for Emax / Enzymatic Emax (%): maximal effect; for Emax: read-out: Enzymatic Emax (%)
T1 construct: Full length OGA enzyme was purchased at OriGene (cat #TP322411); purchased OriGene TP322411
T1 sequence (O60502 1-916): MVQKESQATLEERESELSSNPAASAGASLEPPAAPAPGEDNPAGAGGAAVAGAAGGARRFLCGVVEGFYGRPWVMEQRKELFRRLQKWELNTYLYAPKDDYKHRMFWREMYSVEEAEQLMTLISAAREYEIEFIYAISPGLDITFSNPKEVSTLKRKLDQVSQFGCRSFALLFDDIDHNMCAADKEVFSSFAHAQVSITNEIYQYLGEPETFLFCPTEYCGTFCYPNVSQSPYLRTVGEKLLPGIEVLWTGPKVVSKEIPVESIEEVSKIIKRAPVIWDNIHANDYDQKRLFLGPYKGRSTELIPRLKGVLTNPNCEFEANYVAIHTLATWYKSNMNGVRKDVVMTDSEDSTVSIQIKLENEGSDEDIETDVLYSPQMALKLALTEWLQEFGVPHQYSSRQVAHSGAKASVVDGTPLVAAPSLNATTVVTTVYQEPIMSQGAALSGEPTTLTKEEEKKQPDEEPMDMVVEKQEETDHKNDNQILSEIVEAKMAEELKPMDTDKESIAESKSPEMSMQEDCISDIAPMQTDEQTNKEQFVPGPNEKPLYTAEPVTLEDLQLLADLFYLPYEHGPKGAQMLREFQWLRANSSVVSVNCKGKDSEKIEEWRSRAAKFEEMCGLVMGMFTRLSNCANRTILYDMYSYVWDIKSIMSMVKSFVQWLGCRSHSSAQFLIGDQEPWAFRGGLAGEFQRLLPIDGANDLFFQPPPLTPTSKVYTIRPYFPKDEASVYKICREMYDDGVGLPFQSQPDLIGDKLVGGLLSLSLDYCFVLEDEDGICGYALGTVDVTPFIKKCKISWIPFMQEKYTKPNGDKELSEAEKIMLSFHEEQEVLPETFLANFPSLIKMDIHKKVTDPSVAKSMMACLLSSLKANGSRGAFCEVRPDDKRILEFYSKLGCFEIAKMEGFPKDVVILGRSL
Description: The assay is based on the inhibition of the hydrolysis of fluorescein mono-β-D-N-Acetyl-Glucosamine (FM-GlcNAc) (Mariappa et al. 2015, Biochem J 470:255) by the recombinant human Meningioma Expressed Antigen 5 (MGEA5), also referred to as O-GlcNAcase (OGA). The hydrolysis FM-GlcNAc (Marker Gene technologies, cat #M1485) results in the formation of β-D-N-glucosamineacetate and fluorescein. The fluorescence of the latter can be measured at excitation wavelength 485 nm and emission wavelength 538 nm. An increase in enzyme activity results in an increase in fluorescence signal. Full length OGA enzyme was purchased at OriGene (cat #TP322411). The enzyme was stored in 25 mM Tris.HCl, pH 7.3, 100 mM glycine, 10% glycerol at −20° C. Thiamet G and GlcNAcStatin were tested as reference compounds (Yuzwa et al. 2008 Nature Chemical Biology 4:483; Yuzwa et al. 2012 Nature Chemical Biology 8:393). The assay was performed in 200 mM Citrate/phosphate buffer supplemented with 0.005% Tween-20. 35.6 g Na2HPO4 2 H2O (Sigma, #C0759) were dissolved in 1 L water to obtain a 200 mM solution. 19.2 g citric acid (Merck, #1.06580) was dissolved in 1 L water to obtain a 100 mM solution. pH of the sodium phosphate solution was adjusted with the citric acid solution to 7.2. The buffer to stop the reaction consists of a 500 mM Carbonate buffer, pH 11.0. 734 mg FM-GlcNAc were dissolved in 5.48 mL DMSO to obtain a 250 mM solution and was stored at −20° C. OGA was used at a 2 nM concentration and FM-GlcNAc at a 100 uM final concentration. Dilutions were prepared in assay buffer.
50 nl of a compound dissolved in DMSO was dispensed on Black Proxiplate™ 384 Plus Assay plates (Perkin Elmer, #6008269) and 3 μl fl-OGA enzyme mix added subsequently. Plates were pre-incubated for 60 min at room temperature and then 2 μl FM-GlcNAc substrate mix added. […] Plates were briefly centrifuged for 1 min at 1000 rpm and incubate at room temperature for 6 h. To stop the reaction 5 μl STOP buffer were added and plates centrifuge again 1 min at 1000 rpm. Fluorescence was quantified in the Thermo Scientific Fluoroskan Ascent or the PerkinElmer EnVision with excitation wavelength 485 nm and emission wavelength 538 nm.
For analysis a best-fit curve is fitted by a minimum sum of squares method. From this an IC50 value and Hill coefficient was obtained. High control (no inhibitor) and low control (saturating concentrations of standard inhibitor) were used to define the minimum and maximum values.

OGA = molecular target: T2, OGA (Homo sapiens, UniProt O60502); test: OGA cellular assay (ICC detection of O-GlcNAcylated proteins in HEK293 cells inducible for P301L mutant human Tau); type: cell-based; details: for Emax: HEK293, HEK293 cells inducible for P301L mutant human Tau; for Emax / Cellular Emax (%): maximum defined by Thiamet G at 200 uM; for EC50 / Cellular Emax (%) / Cellular hOGA; pEC50: HEK293 cells inducible for P301L mutant human Tau; for EC50 / Cellular hOGA; pEC50: 6 hours incubation, ICC O-GlcNAcylation; for EC50: read-out: Cellular hOGA, pEC50 (converted)
T2 construct: endogenous in cells; host or cells: HEK293 cells inducible for P301L mutant human Tau (isoform 2N4R)
T2 sequence (O60502 1-916): T1 sequence (O60502 1-916)
Description: HEK293 cells inducible for P301L mutant human Tau (isoform 2N4R) were established at Janssen. Thiamet-G was used for both plate validation (high control) and as reference compound (reference EC50 assay validation). OGA inhibition is evaluated through the immunocytochemical (ICC) detection of O-GlcNAcylated proteins by the use of a monoclonal antibody (CTD110.6; Cell Signaling, #9875) detecting O-GlcNAcylated residues as previously described (Dorfmueller et al. 2010 Chemistry & biology, 17:1250). Inhibition of OGA will result in an increase of O-GlcNAcylated protein levels resulting in an increased signal in the experiment. Cell nuclei are stained with Hoechst to give a cell culture quality control and a rough estimate of immediate compounds toxicity, if any. ICC pictures are imaged with a Perkin Elmer Opera Phenix plate microscope and quantified with the provided software Perkin Elmer Harmony 4.1.
Cells were propagated in DMEM high Glucose (Sigma, #D5796) following standard procedures. 2 days before the cell assay cells are split, counted and seeded in Poly-D-Lysine (PDL) coated 96-wells (Greiner, #655946) plate at a cell density of 12,000 cells per cm^2 (4,000 cells per well) in 100 μl of Assay Medium (Low Glucose medium is used to reduce basal levels of GlcNAcylation) (Park et al. 2014 The Journal of biological chemistry 289:13519). At the day of compound test medium from assay plates was removed and replenished with 90 μl of fresh Assay Medium. 10 μl of compounds at a 10 fold final concentration were added to the wells. Plates were centrifuged shortly before incubation in the cell incubator for 6 hours. DMSO concentration was set to 0.2%. Medium is discarded by applying vacuum. For staining of cells medium was removed and cells washed once with 100 μl D-PBS (Sigma, #D8537). From next step onwards unless other stated assay volume was always 50 μl and incubation was performed without agitation and at room temperature. Cells were fixed in 50 μl of a 4% paraformaldehyde (PFA, Alpha aesar, #043368) PBS solution for 15 minutes at room temperature. […] Before analysis samples were washed 2 times manually for 5 minutes in ICC base buffer.
Imaging is performed using Perkin Elmer Phenix Opera using a water 20× objective and recording 9 fields per well. Intensity readout at 488 nm is used as a measure of O-GlcNAcylation level of total proteins in wells. To assess potential toxicity of compounds nuclei were counted using the Hoechst staining. IC50-values are calculated using parametric non-linear regression model fitting. As a maximum inhibition Thiamet G at a 200 uM concentration is present on each plate. In addition, a concentration response of Thiamet G is calculated on each plate.

SMILES | IC50 [1] [µM] | Emax [1] [%] | Emax (OGA) [%] | EC50 (OGA) [µM] | Enzymatic Emax (%) [1] [%] | Cellular Emax (%) (OGA) | Cellular hOGA; pEC50 (OGA)
COc1cc(C[C@H]2CN(C(C)c3ccc4c(n3)OCCO4)C[C@@H]2C)cc(C)n1 (mixture of isomers) [Product 120] | 0.158 | 100 | 36 | > 1 | – | – | –
CC(c1nc2c(cc1F)OCCO2)N1CC[C@@H](Oc2ccc(C(F)(F)F)nc2)C1 (stereo partly drawn) [Product 127] | 0.2 | 96 | 26 | > 1 | – | – | –
Cc1cc(C[C@@H]2CCN(C(C)c3ccc4c(n3)OCCO4)C2)nc(C)n1 (stereo partly drawn) [Product 37] | 0.251 | 96 | 14 | > 1 | – | – | –
Cc1cc(C[C@H]2CCN([C@@H](C)c3ccc4c(c3)OCC4)C2)cc(C)n1 (single isomer, unassigned) [Product 14] | 0.0501 | 103 | 74 | 0.126 | – | – | –
COc1cc(C[C@H]2CCN(C(C)c3cnc4c(c3)OCCN4)C2)cc(C)n1 (stereo partly drawn) [Product 20] | 0.0794 | 101 | 61 | 0.501 | – | – | –
Cc1cc(C[C@H]2CCN(C(C)c3ccc4c(c3)OCC4)C2)cc(C(F)(F)F)n1 (stereo partly drawn) [Product 6] | 0.0794 | 103 | 47 | > 1 | – | – | –
COc1cc(C[C@@H]2CCN([C@@H](C)c3cc4c(cc3F)OCCO4)C2)cc(C)n1 [Product 43] | 0.0158 | 102 | 68 | 0.398 | – | – | –
Cc1cc(O[C@@H]2CCN(C(C)c3nc4c(cc3F)OCCO4)C2)cc(C)n1 (single isomer, unassigned) [Product 41] | 1.58 | – | – | > 1 | 87 | −13 | –
Cc1cc(C[C@H]2CCN(C(C)c3cc4c(cc3F)OCCO4)C2)cc(C(F)(F)F)n1 (stereo partly drawn) [Product 7] | 0.02 | 102 | 79 | 0.398 | – | – | –
Cc1cc(O[C@@H]2CCN(C(C)c3nc4c(cc3F)OCCO4)C2)cnc1C (stereo partly drawn) [Product 129] | 0.2 | 91 | 45 | – | – | – | –
Cc1cc(C[C@@H]2CCN(C(C)c3nc4c(cc3F)OCCO4)C2)cc(C)n1 (single isomer, unassigned) [Product 52] | 0.00631 | – | – | 0.0631 | 101 | 80 | –

Results, then the compound that gave them:

IC50 [1] [µM] | Emax [1] [%] | Emax (OGA) [%] | EC50 (OGA) [µM] | Enzymatic Emax (%) [1] [%] | Cellular Emax (%) (OGA) | Cellular hOGA; pEC50 (OGA) | SMILES
0.794 | – | – | > 1 | 91 | 6 | – | Cc1cc(C[C@@H]2CCN([C@H](C)c3ccc4c(n3)OCCO4)C2)cc(C)n1 (single isomer, unassigned) [Product 105]
1.26 | – | – | > 1 | 90 | −6 | – | COc1cc(C[C@@H]2CCN([C@H](C)c3ccc4c(n3)OCCO4)C2)cc(C)n1 (single isomer, unassigned) [Product 107]
0.794 | – | – | > 1 | 99 | 9 | – | Cc1cc(O[C@H]2CCN(C(C)c3ccc4c(n3)OCCO4)C2)cc(C)n1 (single isomer, unassigned) [Product 71]
5.01 | 70 | -5 | > 1 | – | – | – | Cc1cc(CO[C@H]2CCN(C(C)c3ccc4c(n3)OCCO4)C2)cc(C)n1 (stereo partly drawn) [Product 49]
0.126 | 100 | 47 | ~1 | – | – | – | COc1cc(C[C@H]2CN([C@@H](C)c3ccc4c(n3)OCCO4)C[C@@H]2C)cc(C)n1 (stereo in doubt) [Product 123]
> 10 | – | – | – | 13 | −4 | <6 | Cc1cc(OC[C@]2(C)CCN([C@H](C)c3ccc4c(n3)OCCO4)C2)cc(C)n1 (single isomer, unassigned) [Product 101]
0.398 | – | – | – | 97 | 34 | <6 | Cc1cc(CC2(C)CCN(C(C)c3ccc4c(n3)OCCO4)C2)cc(C)n1 (stereo not drawn) [Product 59]
– | 49 | -7 | > 1 | – | – | – | COc1cc(C[C@@H]2CN([C@H](C)c3ccc4c(n3)OCCO4)C[C@H]2C)cc(C)n1 (stereo in doubt) [Product 122]
0.126 | – | – | 0.794 | 97 | 56 | – | Cc1cc(C[C@H]2CN(C(C)c3ccc4c(n3)OCCO4)C[C@@H]2C)cc(C)n1 (mixture of isomers) [Product 61]

Reference: patent US20210277015A1, “OGA INHIBITOR COMPOUNDS” (Janssen Pharmaceutica NV, priority 2018, published 2021)
